Laboratory results: patent US12667118B2, “Compositions comprising algae and methods of using same for increasing animal product production” (BLUE OCEAN BARNS, priority 2020, dated 2026)
Read-outs that look alike come from different tables or passages of the source.

Experiments:
dairy cattle [1] = assay: Tolerability limits: intake limits of minerals for dairy cattle; format: in vivo
dairy cattle [2] = settings: cited from earlier work
dairy cattle [3] = assay: Methane intensity versus normalized bromoform intake (Asparagopsis quantity calculation); format: in vivo; settings: regression constant
Method: In still another embodiment, a regression constant is determined. The regression constant relates the amount of bromoform required to achieve a set percentage of methane reduction per amount of neutral detergent fiber present in the animal's diet. Thus, the algorithm comprises the steps of: i) Determining the target methane reduction percentage and subsequently the target absolute reduction (g CH4/kg milk); ii) Determining cow's NDF intake, based on dry matter intake (DMI) and NDF proportion; iii) Determining the normalized bromoform concentration required (equivalent to the desired absolute reduction divided by the regression constant, where the regression constant is the Reduction in methane intensity (g CH4/kg milk) per unit normalized bromoform intake (mg/kg of NDF); iv) Multiplying by the NDF intake to determine the required bromoform concentration (mg) and v) Dividing by the bromoform concentration in that seaweed to determine amount of seaweed required.

[4] = In vivo fate of bromoform delivered from red macroalgae feed supplement; set-up: species or system livestock
livestock rumens = assay: Rumen propionate:acetate ratio and meat trans fat in livestock fed red algae; settings: in vitro and in vivo testing
Description: It is known that bromoform is safely and usefully degraded in anaerobic environments like livestock rumens where the enzyme methyl-coenzyme M reductase is present.

[5] = dairy cattle, at the maximum allowable limit

Molecule	Intake for a Cow Consuming 20.14 kg DM/day (dairy cattle [1]; bovine, in vivo) [mg/day]	Maximum Allowable Component Intake Limit per Daily kg of DM Consumption (dairy cattle [2]; bovine, in vivo) [mg/kg DMI]	Intake for a Cow Consuming 20.14 kg DM/day (dairy cattle [1]; [5]) [mg/day]	Maximum Allowable Component Intake Limit per Daily kg of DM Consumption (dairy cattle [2]; dairy cattle) [mg/kg DMI]	further results
[Al] [Aluminum]	20140	1000			
[B] [Boron]	3021	150			
[Cd] [Cadmium]			201	10	
[Ca+2] [Calcium]			302100	15000	
[Cr] [Chromium]			2014	100	
[Co] [Cobalt]			504	25	
[Fe] [Iron]	10070	500			
[Pb] [Lead]			2014	100	
[Mg+2] [Magnesium]	120840			6000	
[Mn+2] [Manganese]			40280	2000	
[Mo] [Molybdenum]	101	5			
[K+] [Potassium]	402800	20000			
[Se] [Selenium]		5	101		
S1SSSSSSS1 [Sulfur]			60420	3000	
[Zn] [Zinc]			10070	500	
BrC(Br)Br [bromoform]					Slope-Reduction in methane intensity (g CH4/kg milk) per normalized unit bromoform intake (mg/kg of NDF) (dairy cattle [3]): −0.049 g CH4/kg milk per mg/kg of NDF; absorption of bromoform into rumen wall or other organs [4]: not absorbed into the rumen wall, or other organs; bromoform in milk, meat or manure [4]: not found; propionate:acetate ratios in livestock rumens (livestock rumens): increases the propionate:acetate ratios
Arsenic			604	30	
Copper	806	40			
Phosphorous	140980	7000			
Sodium			1706704	84742	
